US7728012B2, “Carboxamide compounds and their use as calpain inhibitors” (Abbott GmbH & Co. KG, priority 2006, dated 2010)

Tests used:
Format in all cases: biochemical
[1] = target: T1, cathepsin K activated from recombinant human procathepsin K (Homo sapiens, UniProt P43235); assay: Cathepsin K kinetic fluorescence enzyme inhibition assay; conditions: selectivity ratio versus calpain I
T1 construct: purchased Calbiochem 342001; host or cells: E. coli
T1 sequence (P43235 115-329): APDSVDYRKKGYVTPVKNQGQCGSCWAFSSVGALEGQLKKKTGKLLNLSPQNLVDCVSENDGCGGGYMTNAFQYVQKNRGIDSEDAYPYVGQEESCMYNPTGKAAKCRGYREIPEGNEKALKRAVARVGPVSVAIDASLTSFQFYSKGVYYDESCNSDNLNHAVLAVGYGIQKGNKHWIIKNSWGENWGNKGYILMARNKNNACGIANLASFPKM

[2] = target: T2, cathepsin B isolated from human liver (Homo sapiens, UniProt P07858); assay: Cathepsin B kinetic fluorescence enzyme inhibition assay; conditions: selectivity ratio versus calpain I
T2 construct: cathepsin B—isolated from human liver; purchased Calbiochem 219362; host or cells: human liver (tissue isolate)
How it was run: (§1)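 Kinetic fluorescence (ex 390/em 460 nm) at room temperature in 50 mM MES, 2 mM EDTA, 0.05% Brij 35, 2.5 mM L-cysteine, pH 6.0. Cathepsin B (liver, 0.25 nM) with 100 μM Z-Phe-Arg-AMC; cathepsin L (liver, 1 nM) with 2 μM Z-Phe-Arg-AMC; recombinant E. coli cathepsin S (0.5 nM) with 20 μM Z-Val-Val-Arg-AMC. Ki via Cheng-Prusoff.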

[3] = target: T3, cathepsin L isolated from human liver (Homo sapiens, UniProt P07711); assay: Cathepsin L kinetic fluorescence enzyme inhibition assay; conditions: selectivity ratio versus calpain I
T3 construct: cathepsin L—isolated from human liver; purchased Calbiochem 219402; host or cells: human liver (tissue isolate)
T3 sequence (P07711 114-333): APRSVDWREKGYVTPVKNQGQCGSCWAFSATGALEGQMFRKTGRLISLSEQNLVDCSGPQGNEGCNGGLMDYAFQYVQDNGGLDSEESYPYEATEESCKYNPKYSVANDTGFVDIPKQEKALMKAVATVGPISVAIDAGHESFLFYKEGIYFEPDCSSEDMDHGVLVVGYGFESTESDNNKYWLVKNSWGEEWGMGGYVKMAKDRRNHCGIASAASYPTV
How it was run: as §1

[4] = target: T4, recombinant human cathepsin S (Homo sapiens, UniProt P25774); assay: Cathepsin S kinetic fluorescence enzyme inhibition assay; conditions: selectivity ratio versus calpain I
T4 construct: purchased Calbiochem 219343; host or cells: E. coli
T4 sequence (P25774 115-331): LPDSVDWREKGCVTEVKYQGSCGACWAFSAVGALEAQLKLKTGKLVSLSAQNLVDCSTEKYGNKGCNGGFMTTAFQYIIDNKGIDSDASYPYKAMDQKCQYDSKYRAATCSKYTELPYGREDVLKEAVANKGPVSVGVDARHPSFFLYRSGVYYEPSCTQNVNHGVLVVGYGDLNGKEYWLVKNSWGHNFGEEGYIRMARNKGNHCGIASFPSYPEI
How it was run: as §1

[5] = target: T5, calpain-I isolated from human erythrocytes (Homo sapiens, UniProt P07384); assay: Calpain I kinetic fluorescence enzyme inhibition assay; conditions: apparent Ki from IC50 by Cheng-Prussoff; average of 2 to 4 dose-effect plots
T5 construct: calpain-I—isolated from human erythrocytes; purchased Calbiochem 208713; host or cells: human erythrocytes (tissue isolate)
T5 sequence (P07384 1-714): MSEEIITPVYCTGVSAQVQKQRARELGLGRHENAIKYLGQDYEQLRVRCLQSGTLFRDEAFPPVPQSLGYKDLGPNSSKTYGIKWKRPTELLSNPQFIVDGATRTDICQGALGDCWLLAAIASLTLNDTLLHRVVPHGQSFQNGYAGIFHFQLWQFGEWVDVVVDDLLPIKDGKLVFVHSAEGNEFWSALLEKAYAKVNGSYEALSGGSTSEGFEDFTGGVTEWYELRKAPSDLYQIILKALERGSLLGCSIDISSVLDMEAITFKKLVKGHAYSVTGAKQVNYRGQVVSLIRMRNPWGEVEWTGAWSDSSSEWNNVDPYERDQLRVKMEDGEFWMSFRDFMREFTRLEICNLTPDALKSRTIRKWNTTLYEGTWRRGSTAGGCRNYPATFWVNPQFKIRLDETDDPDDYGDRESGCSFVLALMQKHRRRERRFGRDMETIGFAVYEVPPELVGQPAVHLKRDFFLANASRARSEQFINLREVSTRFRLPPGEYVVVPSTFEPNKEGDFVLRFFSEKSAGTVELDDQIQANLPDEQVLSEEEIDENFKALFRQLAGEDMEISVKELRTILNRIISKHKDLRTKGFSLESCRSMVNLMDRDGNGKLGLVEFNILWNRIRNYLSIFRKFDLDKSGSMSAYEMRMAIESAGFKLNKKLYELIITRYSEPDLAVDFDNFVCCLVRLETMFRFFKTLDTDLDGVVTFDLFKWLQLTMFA
T5 sequence (P04632 1-268 partner): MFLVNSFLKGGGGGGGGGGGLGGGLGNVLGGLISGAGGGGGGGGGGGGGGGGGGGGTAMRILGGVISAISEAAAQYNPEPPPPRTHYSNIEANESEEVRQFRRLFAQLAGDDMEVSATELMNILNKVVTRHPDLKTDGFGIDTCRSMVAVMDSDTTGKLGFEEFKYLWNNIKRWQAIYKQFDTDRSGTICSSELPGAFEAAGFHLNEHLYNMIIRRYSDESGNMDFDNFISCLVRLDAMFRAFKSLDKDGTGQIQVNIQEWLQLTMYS

Structure (SMILES) | Sel cat. K (Ki(cathepsin K)/Ki(calpain) ratio) [1] | Sel cat. B (Ki(cathepsin B)/Ki(calpain) ratio) [2] | Sel cat. L (Ki(cathepsin L)/Ki(calpain) ratio) [3] | Sel cat. S (Ki(cathepsin S)/Ki(calpain) ratio) [4] | Ki [5] [nM]
COc1ccc(CC(NC(=O)c2cccnc2-n2ccc(-c3cccc4ccccc34)n2)C(=O)C(N)=O)cc1 (stereo not shown) [Example 135, N-(3-Amino-1-{[4-(methyloxy)phenyl]methyl}-2,3-dioxopropyl)-2-(3-naphthalen-1-yl-1H-pyrazol-1-yl)pyridine-3-carboxamide] | ++ (Ki(cathepsin K)/Ki(calpain) ratio of ≧30) | ++ (Ki(cathepsin B)/Ki(calpain) ratio of ≧30) | ++ (Ki(cathepsin L)/Ki(calpain) ratio of ≧50) | ++ (Ki(cathepsin S)/Ki(calpain) ratio of ≧100) | ≤ 40
COc1ccc(CC(NC(=O)c2cccnc2-n2ccc(-c3ccc(F)cc3OC)n2)C(=O)C(N)=O)cc1 (stereo not shown) [Example 136, N-(3-Amino-1-{[4-(methyloxy)phenyl]methyl}-2,3-dioxopropyl)-2-{3-[4-fluoro-2-(methyloxy)phenyl]-1H-pyrazol-1-yl}pyridine-3-carboxamide] | ++ (Ki(cathepsin K)/Ki(calpain) ratio of ≧30) | ++ (Ki(cathepsin B)/Ki(calpain) ratio of ≧30) | ++ (Ki(cathepsin L)/Ki(calpain) ratio of ≧50) | ++ (Ki(cathepsin S)/Ki(calpain) ratio of ≧100) | ≤ 40
COc1ccc(CC(NC(=O)c2cccnc2-n2ccc(-c3ccc4c(c3)OC(F)(F)O4)n2)C(=O)C(N)=O)cc1 (stereo not shown) [Example 137, N-(3-Amino-1-{[4-(methyloxy)phenyl]methyl}-2,3-dioxopropyl)-2-[3-(2,2-difluoro-1,3-benzodioxol-5-yl)-1H-pyrazol-1-yl]pyridine-3-carboxamide] | + (10≦Ki(cathepsin K)/Ki(calpain)<30) | + (10≦Ki(cathepsin B)/Ki(calpain)<30) | ++ (Ki(cathepsin L)/Ki(calpain) ratio of ≧50) | ++ (Ki(cathepsin S)/Ki(calpain) ratio of ≧100) | 40 to 100
COc1cc(Cl)ccc1-c1ccn(-c2ncccc2C(=O)NC(Cc2ccccc2)C(=O)C(N)=O)n1 (stereo not shown) [Example 139, N-[3-Amino-2,3-dioxo-1-(phenylmethyl)propyl]-2-{3-[4-chloro-2-(methyloxy)phenyl]-1H-pyrazol-1-yl}pyridine-3-carboxamide] | ++ (Ki(cathepsin K)/Ki(calpain) ratio of ≧30) | + (10≦Ki(cathepsin B)/Ki(calpain)<30) | ++ (Ki(cathepsin L)/Ki(calpain) ratio of ≧50) | ++ (Ki(cathepsin S)/Ki(calpain) ratio of ≧100) | 40 to 100
NC(=O)C(=O)C(Cc1ccccc1)NC(=O)c1cccnc1-n1cc2c(n1)-c1cc(Cl)ccc1OC2 (stereo not shown) [Example 140, N-[3-Amino-2,3-dioxo-1-(phenylmethyl)propyl]-2-(8-chlorochromeno[4,3-c]pyrazol-2(4H)-yl)pyridine-3-carboxamide] | ++ (Ki(cathepsin K)/Ki(calpain) ratio of ≧30) | + (10≦Ki(cathepsin B)/Ki(calpain)<30) | ++ (Ki(cathepsin L)/Ki(calpain) ratio of ≧50) | ++ (Ki(cathepsin S)/Ki(calpain) ratio of ≧100) | ≤ 40
COc1ccc2c(c1)OCc1cn(-c3ncccc3C(=O)NC(Cc3ccccc3)C(=O)C(N)=O)nc1-2 (stereo not shown) [Example 142, N-[3-Amino-2,3-dioxo-1-(phenylmethyl)propyl]-2-[7-(methyloxy)chromeno[4,3-c]pyrazol-2(4H)-yl]pyridine-3-carboxamide] | + (10≦Ki(cathepsin K)/Ki(calpain)<30) | + (10≦Ki(cathepsin B)/Ki(calpain)<30) | ++ (Ki(cathepsin L)/Ki(calpain) ratio of ≧50) | ++ (Ki(cathepsin S)/Ki(calpain) ratio of ≧100) | ≤ 40
Cc1c(Cl)ccc2c1-c1nn(-c3ncccc3C(=O)NC(Cc3ccccc3)C(=O)C(N)=O)cc1CO2 (stereo not shown) [Example 143, N-[3-Amino-2,3-dioxo-1-(phenylmethyl)propyl]-2-(8-chloro-9-methylchromeno[4,3-c]pyrazol-2(4H)-yl)pyridine-3-carboxamide] | ++ (Ki(cathepsin K)/Ki(calpain) ratio of ≧30) | ++ (Ki(cathepsin B)/Ki(calpain) ratio of ≧30) | ++ (Ki(cathepsin L)/Ki(calpain) ratio of ≧50) | ++ (Ki(cathepsin S)/Ki(calpain) ratio of ≧100) | 40 to 100
NC(=O)C(=O)C(Cc1ccc(F)cc1)NC(=O)c1cccnc1-n1ccc(-c2ccccc2OC(F)(F)F)n1 (stereo not shown) [Example 152, N-{3-Amino-1-[(4-fluorophenyl)methyl]-2,3-dioxopropyl}-2-(3-{2-[(trifluoromethyl)oxy]phenyl}-1H-pyrazol-1-yl)pyridine-3-carboxamide] | ++ (Ki(cathepsin K)/Ki(calpain) ratio of ≧30) | ++ (Ki(cathepsin B)/Ki(calpain) ratio of ≧30) | ++ (Ki(cathepsin L)/Ki(calpain) ratio of ≧50) | ++ (Ki(cathepsin S)/Ki(calpain) ratio of ≧100) | ≤ 40
COc1ccc(CC(NC(=O)c2cccnc2-n2ccc(-c3cccc(Cl)c3Cl)n2)C(=O)C(N)=O)cc1 (stereo not shown) [Example 153, N-(3-Aamino-1-{[4-(methyloxy)phenyl]methyl}-2,3-dioxopropyl)-2-[3-(2,3-dichlorophenyl)-1H-pyrazol-1-yl]pyridine-3-carboxamide] | ++ (Ki(cathepsin K)/Ki(calpain) ratio of ≧30) | ++ (Ki(cathepsin B)/Ki(calpain) ratio of ≧30) | ++ (Ki(cathepsin L)/Ki(calpain) ratio of ≧50) | ++ (Ki(cathepsin S)/Ki(calpain) ratio of ≧100) | ≤ 40
NC(=O)C(=O)C(Cc1ccccc1)NC(=O)c1cccnc1-n1ccc(-c2cccc(C(F)(F)F)c2Cl)n1 (stereo not shown) [Example 155, N-[3-Amino-2,3-dioxo-1-(phenylmethyl)propyl]-2-{3-[2-chloro-3-(trifluoromethyl)phenyl]-1H-pyrazol-1-yl}pyridine-3-carboxamide] | ++ (Ki(cathepsin K)/Ki(calpain) ratio of ≧30) | ++ (Ki(cathepsin B)/Ki(calpain) ratio of ≧30) | ++ (Ki(cathepsin L)/Ki(calpain) ratio of ≧50) | ++ (Ki(cathepsin S)/Ki(calpain) ratio of ≧100) | 40 to 100
COc1ccc(CC(NC(=O)c2cccnc2-n2ccc(-c3cccc(F)c3Cl)n2)C(=O)C(N)=O)cc1 (stereo not shown) [Example 157, N-(3-Amino-1-{[4-(methyloxy)phenyl]methyl}-2,3-dioxopropyl)-2-[3-(2-chloro-3-fluorophenyl)-1H-pyrazol-1-yl]pyridine-3-carboxamide] | ++ (Ki(cathepsin K)/Ki(calpain) ratio of ≧30) | ++ (Ki(cathepsin B)/Ki(calpain) ratio of ≧30) | ++ (Ki(cathepsin L)/Ki(calpain) ratio of ≧50) | ++ (Ki(cathepsin S)/Ki(calpain) ratio of ≧100) | ≤ 40
